According to patent publication US8420659B2, “Compositions and methods for inhibition of the JAK pathway” (Rigel Pharmaceuticals, Inc., priority 2008, dated 2013):

Test system: Human primary T-cells
Assay: Cell Titer-Glo, Human primary T Cell, IL2 (proliferation)
Format: cell-based
Conditions: IL-2 stimulated primary T-cell proliferation, 72 hours at 37° C., Cell Titer-Glo luminescence
Description: The activity of the compounds described herein can further be characterized by assaying the effect of the 2,4-pyrimidinediamine compounds described herein on the proliferative response of primary human T-cells. In this assay, primary human. T-cells derived from peripheral blood and pre-activated through stimulation of the T-cell receptor and CD28, proliferate in culture in response to the cytokine Interleukin-2 (IL-2). This proliferative response is dependent on the activation of JAK1 and JAK3 tyrosine kinases, which phosphorylate and activate the transcription factor Stat-5. The primary human T-cells are incubated with the 2,4-pyrimidinediamine compounds in the presence of IL-2 for 72 hours, and at the assay endpoint intracellular ATP concentrations are measured to assess cell viability. A reduction in cell proliferation compared to control conditions is indicative of inhibition of the JAK kinase pathway.
Cell Titer-Glo, Human primary T Cell, IL2
Materials and Reagents: Dimethyl Sulfoxide (DMSO) (Sigma-Aldrich, Cat# D2650) was used as a control. The following reagents were used: Ficoll Hypaque (Amersham Pharmacia, Cat#17-1440-03), Anti-Human CD3 (BD Pharmingen, Cat#555336), Anti-Human CD28 (Immunotech, Cat# IM1376), Yssel's Media (Gemini Bio-products, Cat#400-103), RPMI 1640 (Cellgro, Cat#10-040-CM), Fetal Bovine Serum (JRH, Cat#12106-500M), and […] (R& D Systems, Cat#202-IL).
Human primary T-cells were isolated and cultured according to the following procedure. Whole blood was obtained from a healthy volunteer, mixed 1:1 with PBS, layered on to Ficoll Hypaque in 2:1 blood/PBS:ficoll ratio and centrifuged for 30 min at 4° C. at 1750 rpm. The lymphocytes at the serum: ficoll interface were recovered and washed twice with 5 volumes of PBS. The cells were resuspended in Yssel's medium containing 40 U/mL IL-2 and seeded into a flask pre-coated with […] anti-CD3 and […] anti-CD28. The primary T-cells were stimulated for 3-4 days, then transferred to a fresh flask and maintained in RPMI with 10% FBS and 40 U/mL IL-2.
Primary T-cells were starved of IL-2 overnight and resuspended in Yssel's medium at 2×10^6 cells/mL. 50 μL of cell suspension containing 80 U/mL IL-2 was added to each well of a flat bottom 96 well black plate. For the unstimulated control, IL-2 was omitted from the last column on the plate. Compound was serially diluted in DMSO from 5 mM in 3-fold dilutions, and then diluted 1:250 in Yssel's medium. 50 μL of 2× compound was added per well in duplicate and the cells were allowed to proliferate for 72 hours at 37° C.
Proliferation was measured using Cell Titer-Glo. The substrate was thawed and allowed to come to room temperature. After mixing the Cell Titer-Glo reagent and diluent together, 100 μL was added to each well. The plates were mixed on an orbital shaker for two minutes to induce lysis and incubated at room temperature for an additional ten minutes to allow the signal to equilibrate. The Luminescence was read on the Wallac Plate Reader (Wallac Victor2 1420 Multilabel Counter).

CCNS(=O)(=O)NCc1ccc(Nc2nc(Nc3cccc(S(N)(=O)=O)c3)ncc2Cl)cc1 [Compound I-5, N2-(3-Aminosulfonylphenyl)-5-chloro-N4-[4-[(N-ethylsulfamoylamino)methyl]phenyl]-2,4-pyrimidinediamine]
IC50: < 500 nM

CCNS(=O)(=O)NCc1ccc(Nc2nc(Nc3ccc(S(N)(=O)=O)cc3)ncc2C)cc1 [Compound I-8, N2-(4-Aminosulfonylphenyl)-N4-[4-[(N-ethylsulfamoylamino)methyl]phenyl]-5-methyl-2,4-pyrimidinediamine]
IC50: < 500 nM

CCNS(=O)(=O)NCc1cccc(Nc2nc(Nc3cccc(S(N)(=O)=O)c3)ncc2Cl)c1 [Compound I-9, N2-(3-Aminosulfonylphenyl)-5-chloro-N4-[3-[(N-ethylsulfamoylamino)methyl]phenyl]-2,4-pyrimidinediamine]
IC50: < 500 nM

CCNS(=O)(=O)NCc1cccc(Nc2nc(Nc3ccc(S(N)(=O)=O)cc3)ncc2Cl)c1 [Compound I-10, N2-(4-Aminosulfonylphenyl)-5-chloro-N4-[3-[(N-ethylsulfamoylamino)methyl]phenyl]-2,4-pyrimidinediamine]
IC50: < 500 nM

CCNS(=O)(=O)NCc1cccc(Nc2nc(Nc3cccc(S(N)(=O)=O)c3)ncc2C)c1 [Compound I-11, N2-(3-Aminosulfonylphenyl)-N4-[3-[(N-ethylsulfamoylamino)methyl]phenyl]-5-methyl-2,4-pyrimidinediamine]
IC50: < 500 nM

CCNS(=O)(=O)NCc1cccc(Nc2nc(Nc3ccc(S(N)(=O)=O)cc3)ncc2C)c1 [Compound I-12, N2-(4-Aminosulfonylphenyl)-N4-[3-[(N-ethylsulfamoylamino)methyl]phenyl]-5-methyl-2,4-pyrimidinediamine]
IC50: < 500 nM

CCNS(=O)(=O)NCc1cccc(Nc2nc(Nc3cccc(S(N)(=O)=O)c3)ncc2F)c1 [Compound I-13, N2-(3-Aminosulfonylphenyl)-N4-[3-[(N-ethylsulfamoylamino)methyl]phenyl]-5-fluoro-2,4-pyrimidinediamine]
IC50: < 500 nM

CCNS(=O)(=O)NCc1ccc(Nc2nc(Nc3cccc(S(N)(=O)=O)c3)ncc2Cl)c(C)c1 [Compound I-15, N2-(3-Aminosulfonylphenyl)-5-chloro-N4-[4-[(N-ethylsulfamoylamino)methyl]-2-methylphenyl]-2,4-pyrimidinediamine]
IC50: < 500 nM

NS(=O)(=O)c1ccc(Nc2ncc(Cl)c(Nc3ccc(CNS(=O)(=O)NC4CC4)cc3)n2)cc1 [Compound I-19, N2-(4-Aminosulfonylphenyl)-5-chloro-N4-[4-[(N-cyclopropylsulfamoylamino)methyl]phenyl]-2,4-pyrimidinediamine]
IC50: < 500 nM
